According to PubChem BioAssay (NCI):
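Tested at 5 concentrations; 48 h exposure; 96-well plates; endpoints linearly interpolated, else capped at highest concentration. TGI is the concentration that stops growth completely.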

What was measured:
Assay in all cases: growth of human tumour cells (NCI), 48 h
[1] = test system: A498 renal
[2] = test system: A549 NSCLC
[3] = test system: ACHN renal
[4] = test system: CCRF-CEM leukemia
[5] = test system: HCT-116 colon
[6] = test system: HCT-15 colon
[7] = test system: HOP-92 NSCLC
[8] = test system: MALME-3M melanoma
[9] = test system: MDA-MB-231 breast
[10] = test system: MDA-N
[11] = test system: NCI-H23 lung
[12] = test system: NCI/ADR-RES ovarian
[13] = test system: RXF 393 renal
[14] = test system: SF-295 CNS
[15] = test system: SK-MEL-2 melanoma
[16] = test system: SK-MEL-5 melanoma
[17] = test system: SN12C renal
[18] = test system: SNB-75 CNS
[19] = test system: T-47D breast
[20] = test system: UACC-62 melanoma

Row | Structure (SMILES) | TGI [1] [µM] | TGI [2] [µM] | TGI [3] [µM] | TGI [4] [µM] | TGI [5] [µM] | TGI [6] [µM] | TGI [7] [µM] | TGI [8] [µM] | TGI [9] [µM] | TGI [10] [µM] | TGI [11] [µM] | TGI [12] [µM] | TGI [13] [µM] | TGI [14] [µM] | TGI [15] [µM] | TGI [16] [µM] | TGI [17] [µM] | TGI [18] [µM] | TGI [19] [µM] | TGI [20] [µM]
1 | CC(=O)c1c(SCCN2CCCC2)n(-c2ccccc2)c(=S)n(-c2ccccc2)c1=O | 27.7 | 15.1 | 3.46 | 4.01 | 18.6 | 27.5 | 18.2 | 12.2 | 23.4 | 19.9 | 37.4 | > 85.2 | 5.63 | > 100 | 50.8 | 20.8 | 20.5 | 31.8 | 5.42 | 20
2 | CC(=O)N1CN2C(=O)CCC2c2ccccc21 (stereo unspecified) | > 100 | > 100 | > 100 | > 100 | > 100 | > 100 | > 100 | > 100 | > 100 | > 100 | > 100 | > 100 | > 100 | > 100 | > 100 | > 100 | > 100 | > 100 | > 100 | > 100
3 | CC1=NNC(=O)C1C1CC(c2c[nH]c3ccccc23)=NNC1=S (stereo unspecified) | > 100 | > 100 | > 100 | > 100 | > 100 | > 100 | > 100 | > 100 | > 100 | > 100 | > 100 | > 100 | > 100 | > 100 | > 100 | > 100 | > 100 | > 100 | > 100 | > 100
4 | CN(C)c1ccc(/C=C(\NC(=O)c2ccccc2)C(=O)NCC(=O)O)cc1 | > 100 | > 100 | > 100 | > 100 | > 100 | > 100 | > 100 | > 100 | > 100 | > 100 | > 100 | > 100 | > 100 | > 100 | > 100 | > 100 | > 100 | > 100 | > 100 | > 100
5 | COc1cc2c(c(O)c1OC)C(O)C1CCC(=O)N1C2c1cccc2ccccc12 (stereo unspecified) | > 100 | > 100 | > 100 | > 100 | > 100 | > 100 | > 100 | > 100 | > 100 | > 100 | > 100 | > 100 | > 100 | > 100 | > 100 | > 100 | > 100 | > 100 | > 100 | > 100
6 | N#CC(c1nc2ccccc2s1)c1ncnc(Cl)c1[N+](=O)[O-] (stereo unspecified) | > 100 | > 100 | > 100 | > 100 | 26.4 | 35.8 | 42.8 | 41.8 | 92.1 | 37.5 | 32.7 | 44.3 | 89 | > 100 | – | 30 | 41.9 | > 100 | 86.9 | –
7 | O=c1[nH]cnc2c1sc1nc3ccccc3n12 | > 100 | > 100 | > 100 | > 100 | > 100 | > 100 | > 100 | > 100 | > 100 | > 100 | > 100 | > 100 | 84.4 | > 100 | > 100 | > 100 | – | > 100 | > 100 | > 100
8 | C=C1[C@H](OC(=O)C(C)C)[C@]23CC4(O)[C@@H]5[C@@]6(C)CCC[C@]57C([C@@H]2C[C@@]1(O)[C@H](O)[C@@H]73)N4C6 | > 100 | > 100 | > 100 | > 100 | > 100 | > 100 | > 100 | > 100 | > 100 | > 100 | > 100 | > 100 | > 100 | > 100 | > 100 | > 100 | – | > 100 | > 100 | > 100
9 | Cc1n[nH]c(=O)n1C1CCCC1 | > 100 | > 100 | > 100 | > 100 | > 100 | > 100 | > 100 | > 100 | > 100 | > 100 | > 100 | > 100 | > 100 | > 100 | – | > 100 | > 100 | > 100 | > 100 | –
10 | COC(=O)C1=C(C(=O)OC)C(Cc2ccccc2)(OO)OC1=O (stereo unspecified) | – | > 100 | 9.36 | 6.69 | > 100 | 16 | 42.4 | 24.5 | > 100 | > 100 | 44.4 | > 100 | 32.8 | > 100 | 96.2 | > 100 | 98 | 49.6 | > 100 | 15.5
11 | CN(C)Cc1cc(N=Nc2cccc(Cl)c2)ccc1O | 23.8 | 32.2 | 13.5 | 36.3 | 52 | 20.5 | 41 | 31.6 | 36.7 | 23.9 | 57.9 | 22.4 | 20.8 | 27.8 | – | 14.2 | 95.3 | 39.1 | 34 | 13.1
12 | N#CC1Cc2cc3c(cc21)OCO3 (stereo unspecified) | > 100 | > 100 | > 100 | > 100 | > 100 | > 100 | > 100 | > 100 | > 100 | > 100 | > 100 | > 100 | – | > 100 | > 100 | > 100 | > 100 | > 100 | > 100 | > 100
